Test results as given in patent US6828334B2, “Fenofibrate-cyclodextrin inclusion complexes and their pharmaceutical composition” (USV Limited, priority 2002, dated 2004).

Test: in-vitro dissolution, rotating blade method at 75 rpm according to USP24
Assay type: physicochemical

CC(C)OC(=O)C(C)(C)Oc1ccc(C(=O)c2ccc(Cl)cc2)cc1 [fenofibrate, 2-[4-(4-chlorobenzoyl)phenoxy]-2-methyl propionate]
% release of fenofibrate (water with 0.025 M sodium lauryl sulfate, 1200 ml, 5 min): 8-10% | % release of fenofibrate (water with 0.025 M sodium lauryl sulfate, 1200 ml, 10 min): 16-22% | % release of fenofibrate (water with 0.025 M sodium lauryl sulfate, 1200 ml, 20 min): 24-30% | % release of fenofibrate (water with 2% by weight polysorbate-80, 1200 ml, 5 min): 4-8% | % release of fenofibrate (water with 2% by weight polysorbate-80, 1200 ml, 10 min): 19-22% | % release of fenofibrate (water with 2% by weight polysorbate-80, 1200 ml, 20 min): 30-32% | % release of fenofibrate (water with 2% by weight polysorbate-80, 1200 ml, 30 min): 36-38%
